One assay has as its system MKN45 cells. As to the kind of experiment: MKN45 cell proliferation assay (CellTiter-Glo). The class given is cell-based. The note with it: Homo sapiens, MKN-45, 72 h; MKN45 cell line; 3 days incubation; at least duplicate experiments; read-out: Prolif. IC50. As for the experimental part: The effect of inhibitors on the proliferation of MKN45 cells was determined using the following protocol. MKN45 cells were plated in Corning 3917 96-well white tissue culture treated plates in growth medium (RPMI, 10% FCS) at a density of 5000 cells/well in a total volume of 135 μL and incubated at 37° C., 5% CO2, 95% humidity overnight. The following day, one-tenth volume of a 10× concentration of compounds was added to the wells in an 8-point dilution series. The dilution series was composed of an initial 1:5 dilution of a 10 mM stock of compound in DMSO, followed by serial 1:4 dilutions in DMSO, then a 1:20 dilution in growth medium prior to the 1:10 dilution into the cell plate. […] The typical dilution range is 10 μM to 0.6 nM. Once the compound was added to the cells, plates were incubated for 3 days at 37° C., 5% CO2 at 95% humidity. On the third day, after allowing all cells and reagents to come to room temperature, 25 μL of CellTiter-Glo reagent (Promega #G7573) was added to the wells. Plates were shaken on a platform for 10 minutes prior to reading luminescence for 0.1 seconds. The signal of the control wells was taken as 100% growth and growth inhibition was expressed as percent of control. IC50 values were determined from the percent of control data using a standard four-parameter model.
The IC50 values of exemplary compounds of the present invention determined in a cell proliferation assay using the MKN45 cell line according to the procedures described herein in at least duplicate experiments are abbreviated as follows and are shown in Table 2: A, IC50≦0.05 μM; B, 0.05 μM<IC50≦0.2 μM; C, 0.2 μM<IC50≦1 μM; D, IC50>1 μM; ND, not determined. The Example # of Table 2 corresponds to the compound example number as illustrated in the Examples section.
Treatment of this cell line with a selective c-MET inhibitor led to induction of apoptosis and inhibition of proliferation, whereas non-MET-amplified cell lines were not affected [Smolen et al., Proc. Natl. Acad. Sci. USA, 103(7):2316-2321 (2006)]. This cell line is thus “driven” by c-MET, and antiproliferative effects correlate very well with the inhibition of c-MET phosphorylation so that the cell proliferation IC50, values can be used as surrogate for the c-MET cell mechanistic IC50, values. Under the assay conditions described herein, the IC50 values correlate nearly 1:1.

Another assay has as its system Karpas-299 cells. Nature of the assay: Karpas-299 cell proliferation assay (CellTiter-Glo). The class given is cell-based. The note with it: Homo sapiens, 72 h; Karpas-299 cell line (NPM-ALK); 3 days incubation; at least duplicate experiments; read-out: Prolif. IC50. As to the method: The effect of inhibitors on the proliferation of Karpas-299 cells (DSMZ no. ACC 31) was determined using the following protocol. Karpas-299 cells were plated in 96-well white tissue culture treated plates (Corning 3917) in growth medium (RPMI, 10% FCS) at a density of 5000 cells/well in a total volume of 135 μL and incubated at 37° C., 5% CO2, 95% humidity overnight. The following day, one-tenth volume of a 10× concentration of compounds was added to the wells in an 8-point dilution series. Compounds were serially diluted (1:4) in DMSO from a 10 mM stock solution prior to dilution in growth media to the 10× working concentrations (5% DMSO). Final concentration of DMSO in compound-treated wells was 0.5%. Control wells containing growth media or growth media/0.5% DMSO were included in all test plates. […] Once the compounds were added to the cells, plates were incubated for 3 days at 37° C., 5% CO2 at 95% humidity. After 72 hours, all cells and reagents were equilibrated to room temperature and 15 μL of CellTiter-Glo reagent (Promega # G7573) was added to each well. Plates were shaken on a platform for 10 minutes at room temperature prior to reading luminescence. The value of the signal of the control wells was set as 100% growth and growth inhibition was expressed as percent of control. IC50 values were determined from the percent of control data using a standard four-parameter curve fit equation.
The IC50 values of exemplary compounds of the present invention determined in a cell proliferation assay using the Karpas-299 cell line according to the procedures described herein in at least duplicate experiments are abbreviated as follows and are shown in Table 5: A, IC50≦0.05 μM; B, 0.05 μM<IC50≦0.2 μM; C, 0.2 μM<IC50≦1 μM; D, IC50>1 μM; ND, not determined. The Example # of Table 5 corresponds to the compound example number as illustrated in the Examples section.
The Karpas-299 cell line has a t(2; 5) chromosomal translocation and expresses the NPM-ALK fusion protein, resulting in constitutively active ALK. […] Ther. 6(12):3314-22 (2007)]. With this “ALK-driven” cell line, the cell proliferation IC50 values can thus be used as surrogate for the p-ALK cell mechanistic IC50 values.
For orientation: In ATP-based viability assays light output follows the ATP content of the culture.

A value given as a limit tells only on which side of the number the result lay.

One may read the IC50 as the concentration that gives 50% inhibition.

Regarding `COc1ccc(F)c(Cl)c1[C@@H](C)c1c[nH]c2ncc(-c3cnn(C[C@H](O)CO)c3C(F)(F)F)cc12` [Example 36, (2S)-3-[4-{3-[(1S)-1-(2-Chloro-3-fluoro-6-methoxyphenyl)ethyl]-1H-pyrrolo[2,3-b]pyridin-5-yl}-5-(trifluoromethyl)-1H-pyrazol-1-yl]propane-1,2-diol], the IC50 with MKN45 cells lay in the range of 50 to 200 nM; with Karpas-299 cells, 200 to 1000 nM. The corresponding values for `COc1ccc(F)c(Cl)c1[C@@H](C)c1c[nH]c2ncc(-c3cn(C[C@H](O)CO)nc3C(F)(F)F)cc12` [Example 37, (2S)-3-[4-{3-[(1S)-1-(2-Chloro-3-fluoro-6-methoxyphenyl)ethyl]-1H-pyrrolo[2,3-b]pyridin-5-yl}-3-(trifluoromethyl)-1H-pyrazol-1-yl]propane-1,2-diol] are 200 to 1000 nM and 200 to 1000 nM. Taken in the same sequence, the figures for `Cc1c(-c2cnc3[nH]cc([C@@H](CF)c4c(Cl)ccc(F)c4Cl)c3c2)cnn1[C@H]1CC[C@H](O)CC1` [Example 117, trans-4-(4-{3-[(1R)-1-(2,6-dichloro-3-fluorophenyl)-2-fluoroethyl]-1H-pyrrolo[2,3-b]pyridin-5-yl}-5-methyl-1H-pyrazol-1-yl)cyclohexanol] were over 1000 nM and over 1000 nM. With `COc1ccc(F)c(Cl)c1[C@@H](C)c1c[nH]c2ncc(-c3c(C)nn([C@H]4CC[C@H](C(=O)O)CC4)c3C)cc12` [Example 25, trans-4-(4-{3-[(1S)-1-(2-Chloro-3-fluoro-6-methoxyphenyl)ethyl]-1H-pyrrolo[2,3-b]pyridin-5-yl}-3,5-dimethyl-1H-pyrazol-1-yl)cyclohexanecarboxylic acid], in the assay with Karpas-299 cells, the IC50 is at most 50 nM.

With `[2H]c1[nH]c2ncc(-c3cnn([C@H]4CC[C@H](O)CC4)c3C)cc2c1[C@H](C)c1c(OC(F)F)ccc(F)c1Cl` [Example 94, trans-4-{-4-[3-{(1S)-1-[2-Chloro-6-(difluoromethoxy)-3-fluorophenyl]ethyl}(2-^2H)-1H-pyrrolo[2,3-b]pyridin-5-yl]-5-methyl-1H-pyrazol-1-yl}cyclohexanol], the half-inhibitory concentration (IC50) in the assay with MKN45 cells and in the assay with Karpas-299 cells was at most 50 nM throughout.

`Cc1c(-c2cnc3[nH]cc([C@@H](C)c4c(OC(F)F)ccc(F)c4Cl)c3c2)cnn1[C@H]1CC[C@H](O)CC1` [Example 98, trans-4-[4-(3-{(1R)-1-[2-Chloro-6-(difluoromethoxy)-3-fluorophenyl]ethyl}-1H-pyrrolo[2,3-b]pyridin-5-yl)-5-methyl-1H-pyrazol-1-yl]cyclohexanol]: the IC50 in the assay on MKN45 cells is over 1000 nM. On to `[2H]c1[nH]c2ncc(-c3cnn([C@H]4CC[C@H](O)CC4)c3C)cc2c1[C@@H](C)c1c(OC(F)F)ccc(F)c1Cl` [Example 95, trans-4-{-4-[3-{(1R)-1-[2-Chloro-6-(difluoromethoxy)-3-fluorophenyl]-ethyl}(2-^2H)-1H-pyrrolo[2,3-b]pyridin-5-yl]-5-methyl-1H-pyrazol-1-yl}cyclohexanol], for which the IC50 with MKN45 cells and with Karpas-299 cells was 200 to 1000 nM in each case. For the compound `CCOC(=O)[C@H]1CC[C@H](n2nc(C)c(-c3cnc4[nH]cc([C@H](C)c5c(OC)ccc(F)c5Cl)c4c3)c2C)CC1` [Example 26, Ethyl trans-4-(4-{3-[(1S)-1-(2-chloro-3-fluoro-6-methoxyphenyl)ethyl]-1H-pyrrolo[2,3-b]pyridin-5-yl}-3,5-dimethyl-1H-pyrazol-1-yl)cyclohexanecarboxylate], the IC50 with Karpas-299 cells is at most 50 nM.

The values are drawn from patent US8445510B2, “Fused bicyclic kinase inhibitors” (OSI Pharmaceuticals, LLC, priority 2011, dated 2013).
